Laboratory results from patent publication US20220267479A1, “POLYIODIDE BINDING COMPOUNDS AND METHODS OF USE THEREOF” (North Carolina State University, priority 2019, published 2022).
Values joined by “and” are separate entries in the source; they are usually repeats but may differ in a detail not shown here. Equal entries are not always repeated.

Key:
[1] = target: T1, β-glucosidase from Agrobacterium (Agrobacterium sp., UniProt P12614); assay: Indigogenic reaction with β-glucosidase from Agrobacterium; type: biochemical
T1 construct: purchased Megazyme; host or cells: recombinant
T1 sequence (P12614 1-459): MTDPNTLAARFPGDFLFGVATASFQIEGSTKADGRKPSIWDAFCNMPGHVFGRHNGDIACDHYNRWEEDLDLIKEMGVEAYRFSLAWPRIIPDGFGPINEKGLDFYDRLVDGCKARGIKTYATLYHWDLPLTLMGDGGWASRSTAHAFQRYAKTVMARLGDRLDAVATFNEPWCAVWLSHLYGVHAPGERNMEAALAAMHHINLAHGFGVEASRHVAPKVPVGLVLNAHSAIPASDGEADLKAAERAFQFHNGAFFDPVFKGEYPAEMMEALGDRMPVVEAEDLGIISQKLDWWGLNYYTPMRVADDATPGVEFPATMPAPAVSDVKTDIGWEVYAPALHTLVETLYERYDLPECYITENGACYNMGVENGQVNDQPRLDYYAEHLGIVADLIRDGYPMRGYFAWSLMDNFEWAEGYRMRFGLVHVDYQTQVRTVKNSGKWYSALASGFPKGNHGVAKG
Protocol: Next, the β-glucosidase from Agrobacterium sp. was investigated as the trigger enzyme for indigoid dye formation. […]
Reactions with β-glucosidase from Agrobacterium. An indoxyl compound in DMF (2 μL, 5 mM) and β-glucosidase from Agrobacterium in 10 mM phosphate buffer [2 μL, 10 μM, pH 7.0, containing 50 mM NaCl and 0.6 M (NH4)2SO4] were mixed with 50 mM phosphate buffer (96 μL, pH 7.0). The reaction mixture was incubated at 37° C. for 2 h and then centrifuged for 3 min. Any precipitate was separated from the supernatant and dissolved in DMF (200 μL). The resulting solution was analyzed by absorption spectroscopy. The experiment was repeated three times.

[2] = type: physicochemical; conditions: pH 7.4
Source text: Water solubility of the indoxyl glucoside is important for biological applications. […] Therefore, this compound is not suitable for bioconjugation. The synthesis of 34 relies on successive substitution of the dichloroanilinotriazine unit (derived from N,N-bis(2-methoxyethyl)aniline^31 and cyanuric chloride) with indoxyl-glucoside-PEG-OH and BCN-PEG-NH2 building blocks.
To improve the water solubility of the indoxyl species, a sulfobetaine unit^32,33 was incorporated as a water-solubilizing group. Sulfobetaines are stable zwitterions over a wide range of pH. Synthesis of an indoxyl bearing a sulfobetaine unit is illustrated in Scheme 6. Boc-piperazine (35) was treated with 1,3-propane sultone to afford 36 in 63% yield. Quaternization of the tertiary nitrogen atom in 36 with 3-bromopropanol gave Boc-protected sulfobetaine 37 in 69% yield. The Boc group was cleaved with trifluoroacetic acid (TFA) to afford piperazine-TFA salt 38 in 97% yield. The N-acetyl group of 32 was selectively deprotected with NaHCO3/MeOH in 84% yield. The product 39, piperazine-TFA salt 38, and BCN-amine 14 were assembled at a triazine ring via one-flask, successive substitution of cyanuric chloride to afford 40 in 51% yield. Cleavage of the acetyl groups of sulfobetaine 40 provided 41 in 98% yield.

rat liver homogenate = assay: Indigoid-dye formation in rat liver homogenate; type: biochemical; conditions: indoxyl 1 mM, 5% DMF, 37° C., 24 h
Protocol: Finally, indigoid-dye formation was carried out in rat liver homogenate (Table 1, rightmost column).
Reactions in rat liver homogenate. An indoxyl compound in DMF (5 μL, 20 mM) was mixed with rat liver homogenate (95 μL). The reaction mixture was incubated at 37° C. for 24 h. After allowing to cool to room temperature, the reaction mixture was diluted with DMF (900 μL). The mixture was heated at 70° C. for 2 min and then centrifuged for 2 min. The supernatant was separated from any precipitate. This extraction procedure was repeated two or three times with DMF (100-500 μL). The combined supernatant (1500-1800 μL) was analyzed by absorption spectroscopy.

[3] = target: T2, β-glucosidase from Agrobacterium plus rat liver homogenate (Agrobacterium sp., UniProt P12614); assay: Reaction of 33 with β-glucosidase from Agrobacterium in rat liver homogenate; type: biochemical; conditions: 33 100 μM, enzyme 200 nM, 2% DMF, 37° C., 4 h; ε = 2.6 × 10^4 M^-1 cm^-1
T2 construct: purchased Megazyme; host or cells: recombinant
T2 sequence (P12614 1-459): T1 sequence (P12614 1-459)
Protocol: Finally, indigoid-dye formation was carried out in rat liver homogenate (Table 1, rightmost column). Good yields were obtained in the case of 42 (65%, entry 4) and 27 (50%, entry 13). […] However, when β-glucosidase from Agrobacterium (200 nM) was present in rat liver homogenate, the indigoid dye was obtained in 81% yield (entry 15).
Reaction of 33 with β-glucosidase from Agrobacterium in rat liver homogenate. A DMF solution of 33 (2 μL, 5 mM) and β-glucosidase from Agrobacterium in 10 mM phosphate buffer [2 μL, 10 μM, pH 7.0, containing 50 mM NaCl and 0.6 M (NH4)2SO4] were mixed with rat liver homogenate (96 μL). The reaction mixture was incubated at 37° C. for 4 h and then centrifuged for 3 min. Any precipitate was separated from the supernatant and then suspended in DMF (200 μL). The suspension was centrifuged for 3 min. The supernatant was analyzed by absorption spectroscopy.

[4] = tested on: β-glucosidase from almonds; assay: Indigogenic reaction with β-glucosidase from almonds; type: biochemical
Source text: With diverse glucosyl-indoxyl compounds in hand, we carried out a set of studies to examine indigoid-dye formation upon enzymatic cleavage of the glucosyl unit under physiological conditions. Altogether, 14 new (15, 16, 19-27, 30, 33, 41) and 2 known (1, 42) synthetic indoxyl-glucosides (lacking acetyl protecting groups) were examined in an effort to identify suitable combinations of substituents to support both bioconjugation and indigoid dye formation. In initial studies, β-glucosidase from almonds was employed to trigger indigoid dye formation (Table 1). Thus, a mixture of this enzyme (1 unit/mL) and an indoxyl β-glucoside (0.1 μmol, 1 mM) in acetate buffer (pH 5, containing 5% DMF) was incubated at 37° C. for 16-19 h. All indigoid dye was dissolved in each case for quantitative evaluation.
Reactions with β-glucosidase from almonds. An indoxyl compound in DMF (5 μL, 20 mM) and β-glucosidase from almonds in H2O (10 μL, 10 units/mL) were mixed with acetate buffer (85 μL, 50 mM, pH 5.0). The reaction mixture was incubated at 37° C. for 16-19 h and then allowed to cool to room temperature. DMF (300 μL for the reactions of 15, 16, 1, 19, 22, and 25; or 900 μL for the reactions of 42, 20, 21, 23, 24, 26, 27, 30, and 31, respectively) was added to dissolve any indigoid precipitate. The resulting solution was analyzed by absorption spectroscopy.

tritosomes = assay: Indigoid dye formation with tritosomes; type: biochemical
Protocol: The results from the glucosidase survey prompted several further experiments. First, a parallel set of studies was carried out with inclusion of several oxidants commonly employed in histochemical studies, given that the indigoid dye forming process requires the presence of an oxidant. […] The activity of the β-glucosidase was affected only slightly in the presence of a non-ionic detergent. To verify that the results observed in Table 1 were reliable, a 5-mg scale reaction of 33 was carried out to isolate indigo 43, which was obtained in 66% yield (Scheme 7). The 66% isolated yield corresponded well with the enzymatic yield of […] (Table 1, entry 15).
General methods. β-Glucosidase from almonds (lyophilized powder, >2 units/mg solid) and peroxidase from horseradish were purchased from Sigma-Aldrich. O-Glucosidase from Agrobacterium sp. (recombinant, suspension in 3.2 M (NH4)2SO4) was purchased from Megazyme; the concentration in solution was determined by absorption spectroscopy with E^0.1%32 2.20 cm^−1 at 280 nm.^37 Tritosomes were purchased from XenoTech. Rat liver homogenate was purchased from MP Biomedicals.

[5] = as E4 but ε = 2.6 × 10^4 M^-1 cm^-1 measured for 43

O=C(NCCOCCOCCNc1nc(OCCOCCOCCOc2c(Br)cc3[nH]cc(OC4O[C@H](CO)[C@@H](O)[C@H](O)[C@H]4O)c3c2Br)nc(N2CC[N+](CCCO)(CCCS(=O)(=O)[O-])CC2)n1)OC[C@@H]1[C@@H]2CCC#CCC[C@@H]21 (stereo partly shown) [Indoxyl 41]
Yield (%) β-glucosidase from Agrobacterium [1, 5]: 106% and 106 ± 4^g %
Solubility [2]: > 400 µM

OCCOCCOCCOc1c(Br)cc2[nH]cc(O[C@@H]3O[C@H](CO)[C@@H](O)[C@H](O)[C@H]3O)c2c1Br [Indoxyl 33, 4,6-Dibromo-5-[1-hydroxy-3,6,9-trioxanon-9-yl]-1H-indol-3-yl β-D-glucopyranoside]
Yield (%) rat liver homogenate (rat liver homogenate; ε = 2.6 × 10^4 M^-1 cm^-1 measured for 43): < 5%
Yield (%) β-glucosidase from Agrobacterium plus rat liver homogenate [3]: 81% and 81 ± 5%
Yield of indigoid dye ([1]; 33 at 1.0 μM, enzyme 200 nM, pH 7.0, 2 h): 41%
Yield of indigoid dye ([1]; 33 at 1.0 μM, enzyme 200 nM, pH 7.0, 14 h): 57%
Yield of indigoid dye ([1]; 33 at 1.8 μM, enzyme 200 nM, pH 7.0, 2 h): 42%
Yield of indigoid dye ([1]; 33 at 1.8 μM, enzyme 200 nM, pH 7.0, 14 h): 79%
Yield of indigoid dye ([1]; 33 at 3.2 μM, enzyme 200 nM, pH 7.0, 2 h): 51%
Yield of indigoid dye ([1]; 33 at 3.2 μM, enzyme 200 nM, pH 7.0, 14 h): 88%
Yield of indigoid dye ([1]; 33 at 5.6 μM, enzyme 200 nM, pH 7.0, 2 h): 62%
Yield of indigoid dye ([1]; 33 at 10 μM, enzyme 200 nM, pH 7.0, 2 h): 90%
Yield of indigoid dye ([1]; 33 at 18 μM, enzyme 200 nM, pH 7.0, 2 h): 85%
Yield of indigoid dye ([1]; 33 at 32 μM, enzyme 200 nM, pH 7.0, 2 h): 86%
Yield of indigoid dye ([1]; 33 at 56 μM, enzyme 200 nM, pH 7.0, 2 h): 89%
Yield (%) β-glucosidase from Agrobacterium [1, 5]: 99% and 99 ± 5^g %
Yield of indigoid dye ([1]; pH 4, 33 100 μM, enzyme 200 nM, phosphate buffer, 37° C., 3 h): 6%
Yield of indigoid dye ([1]; pH 5, 33 100 μM, enzyme 200 nM, phosphate buffer, 37° C., 3 h): 38%
Yield of indigoid dye ([1]; pH 6-8, 10 nM enzyme, 33 100 μM, 2 h): 50-71%
Yield of indigoid dye ([1]; pH 6-9, 33 100 μM, enzyme 200 nM, 3 h): High to quantitative yields
Yield (%) β-glucosidase from almonds ([4]; as E1 but ε = 2.6 × 10^4 M^-1 cm^-1 measured for 43): 52% and 52^g %

COc1nc(Oc2ccc3[nH]cc(O[C@@H]4O[C@H](CO)[C@@H](O)[C@H](O)[C@H]4O)c3c2)nc(N2CCOCC2)n1 [Indoxyl 19, 5-[(4-Methoxy-6-morpholino-1,3,5-triazin-2-yl)oxy]-1H-indole-3-yl β-D-glucopyranoside]
Yield (%) rat liver homogenate (rat liver homogenate; ε = 1.27 × 10^4 M^-1 cm^-1): <5%
Yield (%) β-glucosidase from Agrobacterium ([1]; indoxyl 100 μM, enzyme 200 nM, 0.05 M phosphate buffer pH 7.0, 2% DMF, 37° C., 2 h, n=3, ε = 1.27 × 10^4 M^-1 cm^-1): 46 ± 5%
Yield (%) β-glucosidase from almonds ([4]; indoxyl 1 mM, enzyme 1 unit/mL, acetate buffer pH 5, 5% DMF, 37° C., 16-19 h, ε = 1.27 × 10^4 M^-1 cm^-1 (measured for 4)): <1%
Indigoid dye formation with tritosomes (tritosomes): low yield of indigoid dye
